Laboratory results: US20210405025A1, “IDENTIFYING COMPOUNDS FOR TREATING CANCER AND USE THEREOF” (THE UAB RESEARCH FOUNDATION, priority 2018, published 2021)
Counter-ions that a name gives are not always drawn.

Test system: relapsed AML cells
Experiment: Drug sensitivity assay, 1,536-well, 3-day culture with individual approved drugs at 10 μM, viability by alamarBlue
Type: cell-based, human
Details: not given
Procedure: Drug sensitivity assays were performed using a 1,536-well platform where all cells and reagents were deposited in wells using an acoustic liquid handling unit that is highly accurate for dispensing of nanoliter volumes of liquid. […] After dispensing the cells into the wells, an independent drug at a known concentration is added to each well and incubated with the cells. After three days, the percentage of live cells in each well is determined to assess the killing efficiency of each compound. […] Cell viability assays are known to those of skill in the art. See, for example, Pemovska et al., Individualized systems medicine strategy to tailor treatments for patients with chemorefractory acute myeloid leukemia. Cancer Discovery 3:1416-1429, 2013; Pabst et al., Identification of small molecules that support human leukemia stem cell activity ex vivo. Nature Methods 11:436-442, 2014; Baccelli et al., A novel approach for the identification of efficient combination therapies in primary human acute myeloid leukemia specimens. Blood Cancer Journal 7:e529, 2017. In studies described herein, the 1,536-well format was utilized, which allowed for use of four times fewer cells as well as less drug and media components due to the small assay volume of 5 microliters. […] Other compounds like CellTiter-Glo (Promega, Madison, Wis.) are equally appropriate reagents for determining cell viability.
Conditions for the drug screening assays were as described in Pabst et al., Identification of small molecules that support human leukemia stem cell activity ex vivo, Nature Methods 11:436-442, 2014). Using this protocol, cells were cultured in Iscove's Modified Dulbecco's Medium (IMDM), 15% BIT (bovine serum albumin, insulin, transferrin; Stem Cell Technologies 09500 (Vancouver, Calif.)), 100 ng/ml SCF (Shenandoah 100-04 (Warwick, Pa.)), 50 ng/ml FLT3L (Shenandoah 100-21), 20 ng/ml IL-3 (Shenandoah 100-80), 20 ng/ml G-CSF (Shenandoah 100-72), 10^-4 M β-mercaptoethanol, gentamicin (50 μg/ml) and ciprofloxacin (10 μg/ml).
Cells were removed from liquid nitrogen and placed in a 37° C. bath, just until thawed. For 1,536-well screens utilizing 6,000 wells about 100 million cells were thawed. The volume was doubled with pre-warmed culture media and placed on ice for about one to two minutes. The cells were brought to a final volume of about 8 to 10 mL before spinning down at 1,100 rpm for 5 min at 10° C. The pelleted cells were resuspended in 10 mL of culture media and plated in a tissue-culture treated T75 flask at a density of 1 to 2 million cells/ml. The cells were cultured overnight prior to fluorescence-activated cell sorting of viable cells on the following day.
After cells were cultured overnight, a cell scraper was used to remove any cells that adhered to the plastic. The cells were gently pipetted up and down to break up aggregates. Then, the entire volume was transferred to a 50 mL conical tube through a 70 micron cell strainer to remove cell clumps. The T75 flask was rinsed and scraped with about 10 mL HBSS and transferred to the same 50 mL conical tube through the strainer. The harvested cells were spun down at 1,100 rpm for 5 min at 10° C. The cells were then resuspendd in about 300-500 microliters FACS buffer (HBSS+2% FBS+1× propidium iodide) and transferred to a FACS tube. The tube was placed on ice and viable cells that are forward- and side-scatter gated on viable myeloid blasts were sorted by FACS (the scatter gate should exclude small lymphocytes, large myeloid cells, and debris). After sorting the required number of viable cells, the cells were spun down at 1,100 rpm for 5 min at 10° C. and subsequently resuspended at 4,000-4,500 cells per 5 microliter volume of complete culture media with growth factors and penicillin/streptomycin.

| Compound | #Cases >70% cell death |
| --- | --- |
| ZINC PYRITHIONE | 9 |

Same assay, conditions: number of relapsed AML cases out of 18 tested with >70% cell death; 10 μM, 3-day culture

| Compound | #Cases >70% cell death |
| --- | --- |
| CC[C@H](C)C(=O)O[C@H]1CCC=C2C=C[C@H](C)[C@H](CC[C@@H]3C[C@@H](O)CC(=O)O3)[C@H]21 [MEVASTATIN] | 7 |
| CN1CCN(CCCN2c3ccccc3Sc3ccc(Cl)cc32)CC1 [PROCHLORPERAZINE] | 6 |
| CCN(CC)CCN1C(=O)c2c(c3c4cccc(Cl)c4n([C@@H]4O[C@H](CO)[C@@H](OC)[C@H](O)[C@H]4O)c3c3[nH]c4c(Cl)cccc4c23)C1=O [BECATECARIN] | 18 |
| N#Cc1ccc2[nH]cc(CCCCN3CCN(c4ccc5oc(C(N)=O)cc5c4)CC3)c2c1 [VILAZODONE] | 2 |
| OC1(c2ccc(Cl)c(C(F)(F)F)c2)CCN(CCCC(c2ccc(F)cc2)c2ccc(F)cc2)CC1 [PENFLURIDOL] | 14 |
| COc1c(C)cnc(Cn2cnc3c(Cl)nc(N)nc32)c1C [CNF-2024] | 18 |
| C=C1C[C@H]2[C@@H]3C=C(C)C4=CC(=O)CC[C@]4(C)[C@H]3CC[C@]2(C)[C@@]1(OC(C)=O)C(C)=O [MELENGESTROL ACETATE] | 2 |
| CC[C@@]1(O)C(=O)OCc2c1cc1n(c2=O)Cc2cc3cc(O)ccc3nc2-1 [10-HYDROXYCAMPTOTHECIN] | 12 |
| CC(C)c1cc(C(C)C)c(-c2csc(N(CCN(C)C)Cc3cccnc3)n2)c(C(C)C)c1 [FOROPAFANT] | 6 |
| Cc1ncc2c(c1O)COC2c1ccc(Cl)cc1 (stereo not drawn) [CICLETANINE] | 4 |
| Nc1nc2nn[nH]c2c(=O)[nH]1 [8-AZAGUANINE] | 1 |
| CCCC(=O)O[C@]1(C(=O)COC(C)=O)CC[C@H]2[C@@H]3C[C@H](F)C4=CC(=O)C=C[C@]4(C)[C@@]3(F)[C@@H](O)C[C@@]21C [DIFLUPREDNATE] | 1 |
| CC[C@@]1(O)C(=O)OCc2c1cc1n(c2=O)Cc2cc3ccccc3nc2-1 [CAMPTOTHECIN] | 12 |
| Cc1cccc(C)c1N=C1NCCCS1 [XYLAZINE] | 4 |
| CCOc1ccc2nc3cc(N)ccc3c(N)c2c1 [ETHACRIDINE LACTATE] | 2 |
| Cc1c(-c2ccc(O)cc2)n(Cc2ccc(OCCN3CCCCCC3)cc2)c2ccc(O)cc12 [BAZEDOXIFENE HCL] | 8 |
| COc1cc2nccc(Oc3ccc(NC(=O)C4(C(=O)Nc5ccc(F)cc5)CC4)cc3)c2cc1OC [CABOZANTINIB] | 2 |
| Cn1c(C#N)ccc1-c1ccc2c(c1)C(C)(C)OC(=S)N2 [TANAPROGET] | 5 |
| C[C@@H]1CCN(C(=O)CC#N)C[C@@H]1N(C)c1ncnc2[nH]ccc12 [TOFACETINIB] | 4 |
| Nc1ccn([C@@H]2O[C@H](CO)[C@@H](O)[C@@H]2O)c(=O)n1 [CYTARABINE] | 16 |

| Compound | #Cases >70% cell death |
| --- | --- |
| COc1cccc([C@@H](C)NCCCc2ccccc2Cl)c1 [TECALCET HYDROCHLORIDE] | 1 |
| C[C@@H]1CCCN1CCc1cc2cc(-c3ccc(C#N)cc3)ccc2o1 [ABT-239] | 1 |
| O=C(O)CCCCN(CCc1ccccc1OCc1ccc(CCc2ccccc2)cc1)Cc1ccc(C(=O)O)cc1 | 1 |
| CN1CCN(CCCN2c3ccccc3Sc3ccc(C(F)(F)F)cc32)CC1 [TRIFLUOPERAZINE] | 3 |
| C[C@H]1O[C@@H](O[C@H]2[C@@H](O)C[C@H](O[C@H]3[C@@H](O)C[C@H](O[C@H]4CC[C@@]5(C)[C@H](CC[C@@H]6[C@@H]5C[C@@H](O)[C@]5(C)[C@@H](C7=CC(=O)OC7)CC[C@]65O)C4)O[C@@H]3C)O[C@@H]2C)C[C@H](O)[C@@H]1O [DIGOXIN] | 18 |
| O=C(NC1CCNCC1)c1[nH]ncc1NC(=O)c1c(Cl)cccc1Cl [AT-7519] | 18 |
| C=CC(=O)N1CCC[C@@H](n2nc(-c3ccc(Oc4ccccc4)cc3)c3c(N)ncnc32)C1 [IBRUTINIB] | 2 |
| CN1C[C@H](C(=O)N[C@]2(C)O[C@@]3(O)[C@@H]4CCCN4C(=O)[C@H](Cc4ccccc4)N3C2=O)C[C@@H]2c3cccc4[nH]cc(c34)C[C@H]21 [DIHYDROERGOTAMINE MESYLATE] | 1 |
| COc1cc2c(c(OC)c1OC)-c1ccc(OC)c(=O)cc1[C@@H](NC(C)=O)CC2 [COLCHICINE] | 13 |
| Nc1ncn([C@@H]2O[C@H](CO)[C@@H](O)[C@H]2O)c(=O)n1 [AZACYTIDINE] | 8 |
| CC[n+]1c(-c2ccccc2)c2cc(N)ccc2c2ccc(N)cc21 [HOMIDIUM BROMIDE] | 1 |
| CC[C@H]1CN2CCc3cc(OC)c(OC)cc3[C@@H]2C[C@@H]1C[C@H]1NCCc2cc(OC)c(OC)cc21 [EMETINE] | 18 |
| EPRINOMECTIN | 5 |
| CC(C)NCC(O)COc1ccc(CC(N)=O)cc1 (stereo not drawn) [ATENOLOL] | 1 |
| C[C@@H](Oc1cc(-c2cnn(C3CCNCC3)c2)cnc1N)c1c(Cl)ccc(F)c1Cl [CRIZOTINIB] | 10 |
| CC(C)(C)C(=O)C(Oc1ccc(Cl)cc1)n1ccnc1 (stereo not drawn) [CLIMBAZOLE] | 1 |
| CN(C)C(=S)SSC(=S)N(C)C [THIRAM] | 4 |
| COc1cc(/C=C/C(=O)CC(=O)/C=C/c2ccc(O)c(OC)c2)ccc1O [CURCUMIN] | 1 |
| N[C@@H](Cc1ccc(N(CCCl)CCCl)cc1)C(=O)O | 4 |
| N[C@@H]1CONC1=O [D-CYCLOSERINE] | 1 |

| Compound | #Cases >70% cell death |
| --- | --- |
| CCC(C)(C)c1ccc(CC(C)CN2C[C@@H](C)O[C@@H](C)C2)cc1 (stereo partly drawn) [AMOROLFINE] | 9 |
| OCCN1CCN(CCCN2c3ccccc3Sc3ccc(Cl)cc32)CC1 [PERPHENAZINE] | 2 |
| N#C[C@@H]1C[C@@H]2C[C@@H]2N1C(=O)[C@@H](N)C12CC3CC(CC(O)(C3)C1)C2 [SAXAGLIPTIN] | 1 |
| CCc1ccc(OCc2ccccc2C(=O)Nc2ccc3nc(C)cc(N)c3c2)cc1 [JTC-801] | 18 |
| CCCOc1ccc(C(=O)OCCN(CC)CC)cc1N [PROPARACAINE] | 1 |
| COc1cc2c(cc1O)CC[C@@H]1[C@@H]2CC[C@]2(C)[C@@H](O)CC[C@@H]12 [2-METHOXYESTRADIOL] | 2 |
| Cc1nccn1CC1CCc2c(c3ccccc3n2C)C1=O (stereo not drawn) [ONDANSETRON (Zofran), ONDANSETRON] | 1 |
| CN1CCCC(n2nc(Cc3ccc(Cl)cc3)c3ccccc3c2=O)CC1 (stereo not drawn) [AZELASTINE] | 2 |
| C#CCC(Cc1cnc2nc(N)nc(N)c2n1)c1ccc(C(=O)N[C@@H](CCC(=O)O)C(=O)O)cc1 (stereo partly drawn) [PRALATREXATE(FOLOTYN, PRALATREXATE] | 5 |
| CCOC(=O)C1=C(C)NC(C)=C(C(=O)OCC)C1c1ccccc1/C=C/C(=O)OC(C)(C)C [LACIDIPINE] | 2 |
| Oc1c(Cl)cc(Cl)c2cccnc12 [CHLOROXINE] | 1 |
| CCN(CC)CCOc1ccc(Cc2ccccc2)cc1 [TESMILIFENE HYDROCHLORIDE] | 9 |
| C[C@]12CC[C@H](O)C[C@H]1CC[C@@H]1[C@@H]2C[C@@H](O)[C@]2(C)[C@@H](C3=CC(=O)OC3)CC[C@]12O [DIGOXIGENIN] | 18 |
| CC(=O)OCC(=O)[C@@]12N=C(C)O[C@@H]1C[C@H]1[C@@H]3CCC4=CC(=O)C=C[C@]4(C)[C@H]3[C@@H](O)C[C@@]12C [DEFLAZACORT] | 8 |
| IFENPRODIL TARTRATE | 4 |
| COC(=O)Nc1nc2ccc(Sc3ccccc3)cc2[nH]1 [FENBENDAZOLE] | 5 |
| COc1ccc(C[C@H](N)C(=O)N[C@H]2[C@@H](O)[C@H](n3cnc4c(N(C)C)ncnc43)O[C@@H]2CO)cc1 [PUROMYCIN] | 18 |
| Nc1c2ccccc2nc2ccccc12 [AMINACRINE] | 18 |
| TYLOXAPOL | 8 |
